Among the data in ChEMBL document CHEMBL1158490, “Discovery of leukotriene A4 hydrolase inhibitors using metabolomics biased fragment crystallography” (J Med Chem, 2009) are IC50 values, retold here.

The IC50 is the point on the concentration scale where inhibition reaches its midpoint.

The assay has as its target T1, Leukotriene A-4 hydrolase (Homo sapiens, UniProt P09960).
T1 sequence (P09960 whole entry): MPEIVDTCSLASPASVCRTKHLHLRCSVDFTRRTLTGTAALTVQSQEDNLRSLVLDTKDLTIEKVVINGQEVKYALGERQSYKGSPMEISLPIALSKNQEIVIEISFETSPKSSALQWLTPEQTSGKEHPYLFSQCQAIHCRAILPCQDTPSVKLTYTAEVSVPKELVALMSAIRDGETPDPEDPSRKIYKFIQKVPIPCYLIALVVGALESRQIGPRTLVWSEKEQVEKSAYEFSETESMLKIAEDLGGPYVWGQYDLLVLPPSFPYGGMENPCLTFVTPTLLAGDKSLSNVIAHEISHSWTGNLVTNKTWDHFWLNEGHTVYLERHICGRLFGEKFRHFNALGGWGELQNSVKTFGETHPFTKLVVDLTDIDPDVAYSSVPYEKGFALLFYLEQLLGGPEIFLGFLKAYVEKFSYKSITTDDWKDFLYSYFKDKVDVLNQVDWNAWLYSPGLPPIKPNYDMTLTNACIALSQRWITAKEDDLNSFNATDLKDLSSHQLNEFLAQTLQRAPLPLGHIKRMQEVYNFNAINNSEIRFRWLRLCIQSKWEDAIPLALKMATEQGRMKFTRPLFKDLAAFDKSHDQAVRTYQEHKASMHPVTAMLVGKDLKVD
The assay can be described thus: Inhibition of peptidase activity of human recombinant LTA4H expressed in Escherichia coli BL21-AI/pRARE.
Regarding `c1ccc(NCc2cccnc2)cc1`, the IC50 worked out at 1320 µM.

Consider `Oc1ccc2[nH]ccc2c1`, for which the concentration for half-maximal inhibition (IC50) is over 1000 µM.

In the case of `CNCc1ccccc1-c1cccs1`, the 50% inhibitory concentration (IC50) is 1080 µM.

`Fc1ccc2[nH]ccc2c1`: the concentration for half-maximal inhibition (IC50) was over 1000 µM.

For `OC(c1ccncc1)c1ccc(OCCN2CCCC2)cc1` (centres undefined), the 50% inhibitory concentration (IC50) was found to be 202 µM.

As to `O=C(O)C1CCN(CCOc2ccc3[nH]ccc3c2)CC1`, the IC50 worked out at 1490 µM.

`c1cc2cc(OCCN3CCCC3)ccc2[nH]1`: the IC50 came to 321 µM.

Turning to `c1ccc(CNc2ccc(OC[C@H]3CCCN3)cc2)cc1`, the IC50 was 0.207 µM.

Regarding `Oc1ccc(CCc2cc(O)cc(O)c2)cc1` [DIHYDRORESVERATROL], the concentration for half-maximal inhibition (IC50) turned out to be 145 µM.
